From a compilation of properties of binary mixtures (doi:10.1021/acs.jced.0c00495)

Test: xn = mol fraction of the nth substance listed
Conditions: 101.3 kPa

Nc1ccccc1 + CCCCCCCCn1cc[n+](C)c1.F[B-](F)(F)F showed a speed of sound (293.15 K, x2 = 0) of 1657 m/s, a speed of sound (298.15 K, x2 = 0) of 1638 m/s and a speed of sound (303.15 K, x2 = 0) of 1618 m/s. For the same compound, the speed of sound (308.15 K, x2 = 0) was 1599 m/s, the speed of sound (318.15 K, x2 = 0) was 1561 m/s and the speed of sound (323.15 K, x2 = 0) was 1542 m/s.
Compound Nc1ccccc1 + CCCCCC[n+]1ccn(C)c1.F[B-](F)(F)F has a speed of sound (293.15 K, x2 = 0) of 1657 m/s, a speed of sound (298.15 K, x2 = 0) of 1638 m/s and a speed of sound (303.15 K, x2 = 0) of 1618 m/s. For the same compound, the speed of sound (308.15 K, x2 = 0) was 1599 m/s.
Nc1ccccc1 + CCCC[n+]1ccn(C)c1.F[B-](F)(F)F showed a speed of sound (293.15 K, x2 = 0.0925) of 1656 m/s, a speed of sound (293.15 K, x2 = 0.2995) of 1645 m/s and a speed of sound (293.15 K, x2 = 0.4002) of 1634 m/s. For the same compound, the speed of sound (293.15 K, x2 = 0.5953) was 1613 m/s, the speed of sound (293.15 K, x2 = 0.6935) was 1603 m/s and the speed of sound (293.15 K, x2 = 0.9191) was 1583 m/s. The speed of sound (298.15 K, x2 = 0) was 1638 m/s, the speed of sound (298.15 K, x2 = 0.2022) was 1636 m/s and the speed of sound (298.15 K, x2 = 0.2995) was 1630 m/s. It also gave a speed of sound (298.15 K, x2 = 0.4002) of 1619 m/s, a speed of sound (298.15 K, x2 = 0.5953) of 1600 m/s and a speed of sound (298.15 K, x2 = 0.6935) of 1590 m/s. The speed of sound (298.15 K, x2 = 0.7904) was 1581 m/s, the speed of sound (298.15 K, x2 = 0.9191) was 1571 m/s and the speed of sound (303.15 K, x2 = 0.0925) was 1623 m/s. It also gave a speed of sound (303.15 K, x2 = 0.2022) of 1619 m/s, a speed of sound (303.15 K, x2 = 0.2995) of 1614 m/s and a speed of sound (303.15 K, x2 = 0.4002) of 1604 m/s. For the same compound, the speed of sound (303.15 K, x2 = 0.4982) was 1595 m/s, the speed of sound (303.15 K, x2 = 0.5953) was 1587 m/s and the speed of sound (308.15 K, x2 = 0) was 1599 m/s. For the same compound, the speed of sound (308.15 K, x2 = 0.0925) was 1606 m/s, the speed of sound (308.15 K, x2 = 0.2022) was 1603 m/s and the speed of sound (308.15 K, x2 = 0.4002) was 1590 m/s. The speed of sound (308.15 K, x2 = 0.5953) was 1573 m/s, the speed of sound (308.15 K, x2 = 0.6935) was 1565 m/s and the speed of sound (308.15 K, x2 = 0.7904) was 1557 m/s. The speed of sound (308.15 K, x2 = 0.9191) was 1548 m/s, the speed of sound (313.15 K, x2 = 0.0925) was 1588 m/s and the speed of sound (313.15 K, x2 = 0.2022) was 1587 m/s. For the same compound, the speed of sound (313.15 K, x2 = 0.2995) was 1582 m/s, the speed of sound (313.15 K, x2 = 0.4982) was 1568 m/s and the speed of sound (313.15 K, x2 = 0.5953) was 1560 m/s. For the same compound, the speed of sound (313.15 K, x2 = 0.6935) was 1553 m/s, the speed of sound (313.15 K, x2 = 0.7904) was 1546 m/s and the speed of sound (313.15 K, x2 = 0.9191) was 1537 m/s. The speed of sound (318.15 K, x2 = 0) was 1561 m/s, the speed of sound (318.15 K, x2 = 0.0925) was 1570 m/s and the speed of sound (318.15 K, x2 = 0.2022) was 1571 m/s. The speed of sound (318.15 K, x2 = 0.2995) was 1566 m/s, the speed of sound (318.15 K, x2 = 0.4002) was 1561 m/s and the speed of sound (318.15 K, x2 = 0.5953) was 1548 m/s. For the same compound, the speed of sound (318.15 K, x2 = 0.7904) was 1534 m/s, the speed of sound (318.15 K, x2 = 0.9191) was 1526 m/s and the speed of sound (323.15 K, x2 = 0.0925) was 1553 m/s. It also gave a speed of sound (323.15 K, x2 = 0.2022) of 1555 m/s, a speed of sound (323.15 K, x2 = 0.4982) of 1541 m/s and a speed of sound (323.15 K, x2 = 0.6935) of 1529 m/s. It also gave a speed of sound (323.15 K, x2 = 0.7904) of 1523 m/s and a speed of sound (323.15 K, x2 = 0.9191) of 1516 m/s.
